Source: PMC10465233, “Lys-urea-Aad, Lys-urea-Cmc and Lys-urea-Cms as potential pharmacophores for the design of PSMA-targeted radioligands to reduce off-target uptake in kidneys and salivary glands” (Theranostics, 2023)

Assays:
LNCaP tumor-bearing mice [1] = experiment: Ex vivo biodistribution in LNCaP tumor-bearing mice; parameters: species or system mouse
Method: (§1) Imaging, biodistribution and radioligand therapy experiments were performed following previously published procedures using male NOD-scid IL2Rg^null (NSG) or NOD.Cg-Rag1^tm1MomIl2rg^tm1Wjl/SzJ (NRG) mice [10]-[12],[14]-[15]. The experiments were conducted according to the guidelines established by the Canadian Council on Animal Care and approved by Animal Ethics Committee of the University of British Columbia. The mice were briefly sedated by inhalation of 2% isoflurane in oxygen, and implanted subcutaneously with 1×10^7 LNCaP cells behind the left shoulder. The mice were imaged or used in biodistribution studies when the tumor grew to 5-8 mm in diameter over a period of 4-5 weeks.
For biodistribution studies, the mice were injected with the radioligand (2-4 MBq) as described above. For blocking, the mice were co-injected with nonradioactive DCFPyL (0.5 mg). At predetermined time points, the mice were sedated by isoflurane inhalation and euthanized by CO2 inhalation. Blood was withdrawn by cardiac puncture, and organs/tissues of interest were collected, weighed and counted using an automatic gamma counter (Tables S4-S7).

LNCaP tumor-bearing mice [2] = experiment: Radioligand therapy study in LNCaP tumor-bearing mice; assay type: in vivo, mouse
Method: as §1
For radiotherapy study, tumor-bearing mice were injected with saline (the control group), [^177Lu]Lu-PSMA-617 (37 MBq) or [^177Lu]-HTK03170 (37, 18.5 and 9.3 MBq) (n = 7-8 per treatment group). Tumor size and body weight were measured twice a week from the date of injection (Day 0) until completion of the study (Day 180). Endpoint criteria were defined as > 20% weight loss, tumor volume > 1000 mm^3, or active ulceration of the tumor.

[3] = Radiation dosimetry for major organs of 25-g mice (OLINDA, MOBY phantom); assay type: in vivo, mouse
Method: Internal dosimetry estimates were calculated using the organ level internal dose assessment (OLINDA) software v.2.2 following our previously published procedures. These estimates were performed for the mouse using the 25g MOBY phantom, and for the tumors using the previously reported unit density sphere model. Both the phantom and the sphere model are available in OLINDA and require the input of the total number of decays normalized by injected activity in units of MBq×h/MBq for each of the source organ/tumor.
The biodistribution data (available in Table S5-S7) were used to determine the kinetics input values required by OLINDA. First, each of the values was decayed to its corresponding time point (the values on the table are shown at injection time). Then the different time-points of the uptake data (%ID/g) for each organ were fitted to both mono-exponential (%ID/g = ae^⎯bt) and bi-exponential (%ID/g = ae^⎯bt + ce^⎯dt) functions using in-house software developed in Python. The best fit was selected based on maximizing the coefficient of determination (R^2) of the fit and minimizing the residuals. The areas under the curves were analytically calculated based on the parameters obtained from the best fit of each organ and this provided the kinetic input values required by OLINDA.
In the mouse case, the adrenals, blood, fat, and muscle are not modeled in the phantom. These organs were grouped together and included in what OLINDA calls the remainder of the body. Lastly, the numbers of decays in the tumors were also calculated based on the biodistribution data of the mice and the values were inputted into the sphere model available in OLINDA.

For `COc1ccc(CCCC(=O)NCC(=O)N[C@@H](CCCCNC(=O)CN2CCN(CC(=O)[O-])CCN(CC(=O)[O-])CCN(CC(=O)[O-])CC2)C(=O)NC[C@H]2CC[C@H](C(=O)N[C@@H](Cc3c4ccccc4cc4ccccc34)C(=O)NCCCC[C@H](NC(=O)N[C@@H](CCCC(=O)O)C(=O)O)C(=O)O)CC2)cc1.[177Lu+3]` [[^177Lu]Lu-HTK03170], the “Tumor:Muscle uptake ratio” value (LNCaP tumor-bearing mice [1]; 24 h post-injection) was 736 ± 333, the “Tumor:Salivary gland uptake ratio” value (LNCaP tumor-bearing mice [1]; 24 h post-injection) was 202 ± 49.3 and the Adrenal glands uptake (LNCaP tumor-bearing mice [1]; 72 h post-injection) was 0.27 ± 0.11 %ID/g. The Blood uptake (LNCaP tumor-bearing mice [1]; 72 h post-injection) was 0.06 ± 0.02 %ID/g, the “Blood:Salivary gland uptake ratio” value (LNCaP tumor-bearing mice [1]; 72 h post-injection) was 0.57 ± 0.17 and the Bone uptake (LNCaP tumor-bearing mice [1]; 72 h post-injection) was 0.03 ± 0.02 %ID/g. It also gave a Brain uptake (LNCaP tumor-bearing mice [1]; 72 h post-injection) of 0.01 ± 0.00 %ID/g, a Fat uptake (LNCaP tumor-bearing mice [1]; 72 h post-injection) of 0.04 ± 0.02 %ID/g and a Heart uptake (LNCaP tumor-bearing mice [1]; 72 h post-injection) of 0.09 ± 0.03 %ID/g. The Intestines uptake (LNCaP tumor-bearing mice [1]; 72 h post-injection) was 0.14 ± 0.11 %ID/g, the Kidneys uptake (LNCaP tumor-bearing mice [1]; 72 h post-injection) was 2.56 ± 0.62 %ID/g and the Lacrimal glands uptake (LNCaP tumor-bearing mice [1]; 72 h post-injection) was 0.01 ± 0.01 %ID/g. For the same molecule, the Liver uptake (LNCaP tumor-bearing mice [1]; 72 h post-injection) was 0.36 ± 0.13 %ID/g, the Lungs uptake (LNCaP tumor-bearing mice [1]; 72 h post-injection) was 0.18 ± 0.04 %ID/g and the Muscle uptake (LNCaP tumor-bearing mice [1]; 72 h post-injection) was 0.02 ± 0.01 %ID/g. For the same molecule, the Pancreas uptake (LNCaP tumor-bearing mice [1]; 72 h post-injection) was 0.04 ± 0.01 %ID/g, the Salivary glands uptake (LNCaP tumor-bearing mice [1]; 72 h post-injection) was 0.11 ± 0.03 %ID/g and the Spleen uptake (LNCaP tumor-bearing mice [1]; 72 h post-injection) was 0.38 ± 0.15 %ID/g. The Stomach uptake (LNCaP tumor-bearing mice [1]; 72 h post-injection) was 0.28 ± 0.33 %ID/g, the Testes uptake (LNCaP tumor-bearing mice [1]; 72 h post-injection) was 0.24 ± 0.04 %ID/g and the Thyroid uptake (LNCaP tumor-bearing mice [1]; 72 h post-injection) was 0.15 ± 0.01 %ID/g. The Tumor uptake (LNCaP tumor-bearing mice [1]; 72 h post-injection) was 59.3 ± 16.0 %ID/g, the “Tumor:Blood uptake ratio” value (LNCaP tumor-bearing mice [1]; 72 h post-injection) was 1029 ± 459 and the “Tumor:Kidney uptake ratio” value (LNCaP tumor-bearing mice [1]; 72 h post-injection) was 24.0 ± 6.93. For the same molecule, the “Tumor:Muscle uptake ratio” value (LNCaP tumor-bearing mice [1]; 72 h post-injection) was 3374 ± 1417, the “Tumor:Salivary gland uptake ratio” value (LNCaP tumor-bearing mice [1]; 72 h post-injection) was 566 ± 236 and the Adrenal glands uptake (LNCaP tumor-bearing mice [1]; 120 h post-injection) was 0.23 ± 0.18 %ID/g. The Blood uptake (LNCaP tumor-bearing mice [1]; 120 h post-injection) was 0.02 ± 0.01 %ID/g, the “Blood:Salivary gland uptake ratio” value (LNCaP tumor-bearing mice [1]; 120 h post-injection) was 0.31 ± 0.06 and the Bone uptake (LNCaP tumor-bearing mice [1]; 120 h post-injection) was 0.02 ± 0.01 %ID/g. The Fat uptake (LNCaP tumor-bearing mice [1]; 120 h post-injection) was 0.04 ± 0.03 %ID/g, the Heart uptake (LNCaP tumor-bearing mice [1]; 120 h post-injection) was 0.05 ± 0.02 %ID/g and the Intestines uptake (LNCaP tumor-bearing mice [1]; 120 h post-injection) was 0.05 ± 0.06 %ID/g. For the same molecule, the Kidneys uptake (LNCaP tumor-bearing mice [1]; 120 h post-injection) was 1.48 ± 0.44 %ID/g, the Liver uptake (LNCaP tumor-bearing mice [1]; 120 h post-injection) was 0.26 ± 0.11 %ID/g and the Lungs uptake (LNCaP tumor-bearing mice [1]; 120 h post-injection) was 0.07 ± 0.02 %ID/g. For the same molecule, the Muscle uptake (LNCaP tumor-bearing mice [1]; 120 h post-injection) was 0.01 ± 0.01 %ID/g, the Pancreas uptake (LNCaP tumor-bearing mice [1]; 120 h post-injection) was 0.02 ± 0.02 %ID/g and the Salivary glands uptake (LNCaP tumor-bearing mice [1]; 120 h post-injection) was 0.05 ± 0.03 %ID/g. The Spleen uptake (LNCaP tumor-bearing mice [1]; 120 h post-injection) was 0.53 ± 0.35 %ID/g, the Stomach uptake (LNCaP tumor-bearing mice [1]; 120 h post-injection) was 0.08 ± 0.15 %ID/g and the Testes uptake (LNCaP tumor-bearing mice [1]; 120 h post-injection) was 0.16 ± 0.04 %ID/g. The Thyroid uptake (LNCaP tumor-bearing mice [1]; 120 h post-injection) was 0.09 ± 0.04 %ID/g, the Tumor uptake (LNCaP tumor-bearing mice [1]; 120 h post-injection) was 71.9 ± 19.4 %ID/g and the “Tumor:Blood uptake ratio” value (LNCaP tumor-bearing mice [1]; 120 h post-injection) was 3996 ± 2182. For the same molecule, the “Tumor:Kidney uptake ratio” value (LNCaP tumor-bearing mice [1]; 120 h post-injection) was 46.4 ± 21.3, the “Tumor:Muscle uptake ratio” value (LNCaP tumor-bearing mice [1]; 120 h post-injection) was 12778 ± 19955 and the “Tumor:Salivary gland uptake ratio” value (LNCaP tumor-bearing mice [1]; 120 h post-injection) was 1167 ± 531. The “Peaked tumor uptake relative to ^68Ga-labeled non-albumin-binder analog” value (LNCaP tumor-bearing mice [1]; mouse, in vivo) was ~ 3 fold, the “Peaked average tumor uptake” value (LNCaP tumor-bearing mice [1]; peak over 1-120 h post-injection) was ~ 60 %ID/g and the “Time of peak tumor uptake” value (LNCaP tumor-bearing mice [1]; post-injection, listed as 177Lu-labeled HTK03170) was 4 to 24 h. For the same molecule, the Median survival (LNCaP tumor-bearing mice [2]; 9.3 MBq injected) was 90 days, the Median survival (LNCaP tumor-bearing mice [2]; 18.5 MBq injected) was 131 days and the “Body weight of the treated mice” value (LNCaP tumor-bearing mice [2]; 37 MBq injected) was “continuously increasing body weight”. For the same molecule, the Median survival (LNCaP tumor-bearing mice [2]; 37 MBq injected) was > 180 days, the Kinetics value ([3]; source organ Brain) was 2.55E-02 MBq-h/MBq and the Kinetics value ([3]; source organ Cortical bone) was 1.91E-01 MBq-h/MBq. The Kinetics value ([3]; source organ Heart) was 7.94E-02 MBq-h/MBq, the Kinetics value ([3]; source organ Kidneys) was 1.33E+00 MBq-h/MBq and the Kinetics value ([3]; source organ Large intestine contents) was 1.12E-01 MBq-h/MBq. It also gave a Kinetics value ([3]; source organ Liver) of 1.24E+00 MBq-h/MBq, a Kinetics value ([3]; source organ Lungs) of 6.60E-02 MBq-h/MBq and a Kinetics value ([3]; source organ Pancreas) of 4.12E-02 MBq-h/MBq. For the same molecule, the Kinetics value ([3]; source organ Remainder of the body) was 4.23E+00 MBq-h/MBq, the Kinetics value ([3]; source organ Small intestine) was 3.35E-01 MBq-h/MBq and the Kinetics value ([3]; source organ Spleen) was 1.04E-01 MBq-h/MBq. The Kinetics value ([3]; source organ Stomach) was 1.32E-02 MBq-h/MBq, the Kinetics value ([3]; source organ Testes) was 9.21E-02 MBq-h/MBq and the Kinetics value ([3]; source organ Thyroid) was 5.15E-03 MBq-h/MBq. It also gave a Kinetics value ([3]; source organ Urinary bladder) of 1.11E+00 MBq-h/MBq.
